Converted amounts (≈) assume the structure as drawn.
Assays:
[1] = tested on: Mycobacterium tuberculosis; assay: Antimycobacterial activity against Mycobacterium tuberculosis H37Ra assessed as reduction in bacterial growth by MABA method; type: functional
[2] = tested on: Mycobacterium tuberculosis; assay: Antimycobacterial activity against Mycobacterium tuberculosis assessed as reduction in bacterial growth measured after 7 days by fluorescence microplate analysis; type: functional, organism-based; conditions: 168 h; for MIC: time 7 day
[3] = tested on: Mycobacterium tuberculosis; assay: Antimycobacterial activity against intracellular Mycobacterium tuberculosis assessed as reduction in cell growth; type: functional
[4] = tested on: Mycobacterium tuberculosis; assay: Antimycobacterial activity against Mycobacterium tuberculosis H37Rv assessed as reduction in bacterial growth incubated for 5 days by resazurin dye based fluorescence analysis; type: functional; conditions: 120 h, time 5 day
[5] = Cytotoxicity against mouse RAW264.7 cells assessed as reduction in cell viability incubated for 48 hrs by MTT assay; type: toxicity, cell-based
[6] = tested on: Mycobacterium tuberculosis; assay: Antimycobacterial activity against Mycobacterium tuberculosis assessed as reduction in bacterial cell growth measured after 24 hrs; type: functional, organism-based
[7] = tested on: Mycobacterium tuberculosis; assay: Antimycobacterial activity against Mycobacterium tuberculosis assessed as inhibition of bacterial growth incubated for 7 days by broth dilution method; type: functional; conditions: 168 h, time 7 day
[8] = Binding affinity to Mycobacterium tuberculosis salicylate synthase using chorismic acid as substrate in presence of MgCl2 by fluorimetric assay
[9] = tested on: Mycobacterium tuberculosis; assay: Antibacterial activity against Mycobacterium tuberculosis H37Rv assessed as reduction in bacterial growth; type: functional
[10] = tested on: Mycobacterium tuberculosis; assay: Antimycobacterial activity against Mycobacterium tuberculosis H37Rv assessed as inhibition of bacterial growth incubated for 5 days by broth microdilution method; type: functional; conditions: 120 h, time 5 day
[11] = tested on: Mycobacterium tuberculosis; assay: Antimicrobial activity against Mycobacterium tuberculosis H37Rv assessed as reduction in bacterial growth by Alamar Blue fluorescence assay; type: functional
[12] = tested on: Mycobacterium tuberculosis; assay: Antibacterial activity against Mycobacterium tuberculosis H37Rv assessed as reduction in bacterial growth incubated for 7 to 14 days by broth microdilution method; type: functional; conditions: time 7-14 day
[13] = tested on: Mycobacterium tuberculosis; assay: Antibacterial activity against Mycobacterium tuberculosis H37Rv assessed as reduction in bacterial growth incubated for 7 to 14 days; type: functional; conditions: time 7-14 day
[14] = Inhibition of Mycobacterium tuberculosis IdeR assessed as reduction in IdeR DNA binding activity by electrophoretic mobility shift assay
[15] = target: T1, Enoyl-[acyl-carrier-protein] reductase [NADH] (Mycobacterium tuberculosis, UniProt P9WGR1); assay: Binding affinity to Mycobacterium tuberculosis InhA assessed as inhibition constant
T1 sequence (P9WGR1 whole entry): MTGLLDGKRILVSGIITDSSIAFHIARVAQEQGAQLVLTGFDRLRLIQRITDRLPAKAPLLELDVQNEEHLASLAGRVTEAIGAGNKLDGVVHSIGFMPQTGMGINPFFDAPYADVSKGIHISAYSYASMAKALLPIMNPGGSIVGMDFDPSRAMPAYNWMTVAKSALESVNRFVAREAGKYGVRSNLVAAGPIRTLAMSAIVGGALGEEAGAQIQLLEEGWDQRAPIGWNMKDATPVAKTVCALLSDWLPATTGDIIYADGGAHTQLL

[16] = tested on: Mycobacterium tuberculosis; assay: Antitubercular activity against Mycobacterium tuberculosis H37Rv assessed as reduction in microbial growth by broth dilution method; type: functional, organism-based
[17] = tested on: Mycobacterium tuberculosis; assay: Antitubercular activity against Mycobacterium tuberculosis XDR-FJ05195 assessed as inhibition of bacterial growth incubated for 14 days by microplate alamar blue assay; type: functional; conditions: XDR-FJ05195, 336 h, time 14 day
[18] = tested on: Mycobacterium tuberculosis; assay: Antimycobacterial activity against Mycobacterium tuberculosis H37Rv by green fluorescent protein microplate assay; type: functional
[19] = tested on: Mycobacterium tuberculosis; assay: Antitubercular activity against Mycobacterium tuberculosis H37Rv ATCC 25618 assessed as reduction in bacterial growth; type: functional
[20] = Inhibition of recombinant Mycobacterium tuberculosis salicylate synthase by fluorimetric assay
[21] = tested on: Mycobacterium tuberculosis; assay: Antimycobacterial activity against Mycobacterium tuberculosis H37Rv assessed as reduction in bacterial growth after 7 days by resazurin based fluorescence assay; type: functional, organism-based; conditions: 168 h
[22] = tested on: Mycobacterium tuberculosis; assay: Antimycobacterial activity against Mycobacterium tuberculosis H37Rv assessed as inhibition of bacterial growth incubated for 7 days by broth dilution method; type: functional; conditions: 168 h, time 7 day
[23] = tested on: Mycolicibacterium smegmatis; assay: Antimycobacterial activity against Mycobacterium smegmatis ATCC 607 assessed as bacterial growth inhibition incubated for 48 hrs by resazurin dye based assay; type: functional
[24] = tested on: Mycolicibacterium smegmatis; assay: Antimycobacterial activity against Mycobacterium smegmatis assessed as bacterial growth inhibition incubated for 48 hrs by resazurin dye based assay; type: functional
[25] = target: T2, Trehalose monomycolate exporter MmpL3 (Mycolicibacterium smegmatis, UniProt A0QP27); assay: Binding affinity to Mycobacterium smegmatis MmpL3 by surface plasmon resonance assay
T2 sequence (A0QP27 whole entry): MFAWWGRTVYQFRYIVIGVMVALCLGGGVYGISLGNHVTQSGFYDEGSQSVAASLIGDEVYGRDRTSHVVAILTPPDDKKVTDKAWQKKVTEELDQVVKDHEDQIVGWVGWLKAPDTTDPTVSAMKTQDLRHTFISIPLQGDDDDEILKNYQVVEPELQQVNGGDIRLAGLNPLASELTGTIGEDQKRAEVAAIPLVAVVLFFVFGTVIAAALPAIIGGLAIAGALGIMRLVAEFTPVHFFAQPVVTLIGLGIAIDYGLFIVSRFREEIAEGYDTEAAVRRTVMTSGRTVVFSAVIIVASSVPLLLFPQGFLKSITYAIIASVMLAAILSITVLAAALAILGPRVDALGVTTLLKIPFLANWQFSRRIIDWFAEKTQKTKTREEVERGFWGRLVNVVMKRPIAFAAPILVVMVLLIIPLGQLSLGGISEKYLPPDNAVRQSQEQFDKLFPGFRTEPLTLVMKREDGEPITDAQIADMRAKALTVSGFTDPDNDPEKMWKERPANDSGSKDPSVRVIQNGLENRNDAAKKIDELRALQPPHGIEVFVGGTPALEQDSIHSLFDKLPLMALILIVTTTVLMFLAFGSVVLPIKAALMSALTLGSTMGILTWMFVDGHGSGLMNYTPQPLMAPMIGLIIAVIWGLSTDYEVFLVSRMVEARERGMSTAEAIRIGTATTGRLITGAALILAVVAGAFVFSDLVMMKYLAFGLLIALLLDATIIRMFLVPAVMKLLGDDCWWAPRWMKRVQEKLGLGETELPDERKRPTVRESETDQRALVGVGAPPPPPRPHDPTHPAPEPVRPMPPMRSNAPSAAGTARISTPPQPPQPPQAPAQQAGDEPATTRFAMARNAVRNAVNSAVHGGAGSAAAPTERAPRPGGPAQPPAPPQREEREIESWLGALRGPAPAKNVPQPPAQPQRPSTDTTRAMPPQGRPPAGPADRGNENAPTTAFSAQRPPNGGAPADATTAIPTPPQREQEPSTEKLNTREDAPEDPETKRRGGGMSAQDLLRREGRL

[26] = target: T3, Salicyl-AMP ligase / salicyl-S-ArCP synthetase (Mycobacterium tuberculosis, UniProt P71716); assay: Binding affinity to Mycobacterium tuberculosis H37Rv ATCC 25618 MbtA assessed as apparent binding constant; conditions: read-out: Ki(app)
T3 sequence (P71716 whole entry): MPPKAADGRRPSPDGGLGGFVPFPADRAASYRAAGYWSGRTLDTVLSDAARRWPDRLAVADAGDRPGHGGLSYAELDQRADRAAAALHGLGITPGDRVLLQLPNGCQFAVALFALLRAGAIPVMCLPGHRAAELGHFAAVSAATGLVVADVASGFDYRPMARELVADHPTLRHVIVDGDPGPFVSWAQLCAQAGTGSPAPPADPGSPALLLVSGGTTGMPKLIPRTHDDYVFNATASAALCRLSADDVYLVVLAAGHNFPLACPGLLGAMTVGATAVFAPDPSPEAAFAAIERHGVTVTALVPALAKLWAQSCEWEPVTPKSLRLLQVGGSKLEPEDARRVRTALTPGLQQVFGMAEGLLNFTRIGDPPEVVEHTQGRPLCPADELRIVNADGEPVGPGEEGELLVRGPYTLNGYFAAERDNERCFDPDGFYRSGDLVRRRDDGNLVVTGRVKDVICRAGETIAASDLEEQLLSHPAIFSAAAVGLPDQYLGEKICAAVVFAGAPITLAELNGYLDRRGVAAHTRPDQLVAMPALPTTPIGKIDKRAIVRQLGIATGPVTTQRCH

`C[N+](C)(CCCN1c2ccccc2Sc2ccc(Cl)cc21)Cc1ccccc1` gave an MIC [1] of 1.1 µg/mL.
In the case of `Cc1ccc(-n2sc3ccccc3c2=O)cc1`, the IC50 [2] is reported as 1.59 µM.
For `O=[N+]([O-])c1cc(C(F)(F)F)ccc1NCCc1c[nH]c2ccc(O)cc12`, the IC90 [3] was 9.3 µM, the MIC90 [4] was 13 µM (≈ 4.75 µg/mL) and the IC50 at 48 h [5] was 29 µM.
`CCN(CC)S(=O)(=O)c1cccc(-n2sc3ccccc3c2=O)c1` gave an IC50 [2] of 0.86 µM and an IC50 [6] of 0.96 µM.
`O=C(O)c1ccc(-c2ccc([N+](=O)[O-])cc2Cl)o1` showed an MIC [7] of 21.1 µM (≈ 5.65 µg/mL).
For `Nc1ncnc2c1ncn2[C@@H]1O[C@H](CNS(=O)(=O)NC(=O)c2ccccc2O)[C@@H](O)[C@H]1F`, the Ki [8] was 0.0017 µM and the MIC [9] was 0.19 µM (≈ 0.0888 µg/mL).
`Nc1ncnc2c1ncn2[C@@H]1O[C@H](COS(=O)(=O)NC(=O)c2ccccc2O)[C@@H](O)[C@H]1O` showed an MIC [10] of 0.5 µg/mL (≈ 1.07 µM), an MIC [11] of 0.39 µg/mL (≈ 0.836 µM) and an MIC [12] of 0.39 µM (≈ 0.182 µg/mL). The MIC [13] was 1.56 µM (≈ 0.728 µg/mL).
Compound `O=C(O)C1(Cc2ccc(O)c(O)c2)NCCS1` (stereo not drawn) has an IC50 [14] of 2.4 µg/mL.
With `N#Cc1cc(-c2ccc(C(=O)O)o2)cc(C(F)(F)F)c1` the Ki [15] was 9 µM and the IC50 [16] was 15 µM.
Compound `CCCCCCCCCCCCCCCCC(=O)N(O)CCCC[C@H](NC(=O)[C@@H]1COC(c2ccccc2O)=N1)C(=O)NC[C@H](CC(=O)CCCO[C@H]1O[C@@H]2O[C@@]3(C)CC[C@H]4[C@H](C)CC[C@@H]([C@H]1C)[C@@]24OO3)C(=O)N[C@H]1CCCCN(O)C1=O` has an MIC [17] of 0.078 µg/mL (≈ 0.0668 µM) and an MIC [18] of 0.39 µg/mL (≈ 0.334 µM).
For `O=S(=O)(O)c1ccc(O)c(NNc2c(O)ccc3ccccc23)c1`, the IC50 [14] was 1 µg/mL.
`Nc1ncnc2c1ncn2[C@@H]1O[C@H](CNS(=O)(=O)NC(=O)c2ccccc2O)[C@@H](O)[C@@H]1F` showed a Ki [8] of 0.0018 µM and an MIC [9] of 0.15 µM (≈ 0.0701 µg/mL).
For `Nc1ncnc2c1ncn2[C@@H]1O[C@H](CNS(=O)(=O)NC(=O)c2ccccc2O)[C@H](F)[C@H]1F`, the MIC [2] was 0.78 µM (≈ 0.366 µg/mL) and the Ki [8] was 0.0014 µM.
In the case of `Cc1ccc(S(=O)(=O)C2CC(=O)N(c3ccc(F)c(Cl)c3)C2=O)cc1` (stereo not drawn), the IC50 [14] is reported as 24.3 µg/mL and the MIC90 [19] is reported as 17.5 µg/mL (≈ 45.8 µM).
Work on `O=C(O)c1ccc(-c2ccc(C(F)(F)F)cc2C(F)(F)F)o1` yielded a Ki [20] of 8.8 µM.
Work on `N#Cc1cc(C(F)(F)F)ccc1-c1ccc(C(=O)O)o1` yielded a Ki [20] of 5.7 µM and an IC50 [21] of 18.5 µM.
For `COC(=O)C(=Cc1ccccc1C(F)(F)F)Oc1cccc(C(=O)OC)c1O`, the MIC [22] was 25 µM (≈ 9.91 µg/mL) and the Ki [8] was 125 µM.
`Nc1ncnc2c1ncn2[C@@H]1O[C@H](CNS(=O)(=O)NC(=O)c2ccccc2O)[C@H](F)[C@H]1O` showed a Ki [8] of 0.0006 µM and an MIC [9] of 0.6 µM (≈ 0.28 µg/mL).
`Nc1ncnc2c1ncn2[C@@H]1O[C@H](CNS(=O)(=O)NC(=O)c2ccccc2O)[C@@H](F)[C@H]1F` showed an MIC [2] of 37 µM (≈ 17.4 µg/mL) and a Ki [8] of 0.139 µM.
Work on `O=c1cc(CC2CCCCC2)[nH]c2c(-c3ccc(Cl)cc3)cnn12` yielded an MIC [23] of 2.5 µM (≈ 0.855 µg/mL).
For `COc1ncnc2c1ncn2[C@@H]1O[C@H](CNS(=O)(=O)NC(=O)c2ccccc2O)[C@@H](O)[C@H]1O`, the MIC [24] was 5.3 µg/mL (≈ 11 µM) and the Ki [25] was 0.277 µM.
For `C#CCCC(=O)Nc1ccc(C(=O)c2ccc(Nc3nc(N)c4ncn([C@@H]5O[C@H](COS(=O)(=O)NC(=O)c6ccccc6O)[C@@H](O)[C@H]5O)c4n3)cc2)cc1`, the MIC [12] was 3 µM (≈ 2.27 µg/mL), the MIC [13] was 50 µM (≈ 37.8 µg/mL) and the Ki [26] was 0.00094 µM.
`CC=C(Oc1cccc(C(=O)O)c1O)C(=O)O` gave an MIC [22] greater than 1 µM and a Ki [8] of 11 µM.
`N#Cc1cc([N+](=O)[O-])ccc1-c1ccc(C(=O)O)o1` showed a Ki [20] of 5 µM and an IC50 [21] of 24.4 µM.
Work on `CC1CC(=O)c2c(cc(O)cc2C(=O)O)O1` (stereo not drawn) yielded an MIC [7] of 55.8 µM (≈ 12.4 µg/mL).
In the case of `CN(C[C@H]1O[C@@H](n2cnc3c(N)ncnc32)[C@H](O)[C@@H]1O)S(=O)(=O)NC(=O)c1ccccc1O`, the MIC [24] is reported as 0.8 µg/mL (≈ 1.67 µM) and the Ki [25] is reported as 0.159 µM.

From ChEMBL document CHEMBL5329193, “Targeting Mycobacterium tuberculosis iron-scavenging tools: a recent update on siderophores inhibitors” (RSC Med Chem, 2023)
